Experimental data as given in US8895511B2, “Use of sarcoplasmic CA2+-ATPase type 2 protein for diagnosing and treating learning or mental disorders” (priority 2009, dated 2014).

Experiments:
[1] = test system: CA3-CA1 synapses in acute hippocampal slices; test: PTP and LTP of fEPSPs induced by 200-Hz tetanization in hippocampal slices; assay type: cell-based, mouse; conditions: CPA or thapsigargin (4 μm); for fEPSP5 (PTP, 5 minutes after tetanization) as % of that in vehicle-treated Df(16)1/+ slices / fEPSP360 (LTP, 6 hours post-tetanus) as % of that in vehicle-treated Df(16)1/+ slices: slices from mature Df(16)1/+ mice
[2] = test system: CA3-CA1 synapses in acute hippocampal slices; test: Paired-pulse facilitation (PPF) of fEPSPs, field potential recordings in hippocampal slices; assay type: cell-based, mouse
[3] = WT mice, 200-Hz induction protocol

SMILES	effect on enhancement of PTP and LTP ([1]; Df(16)1/+ mice, 200-Hz tetanization)	WT fEPSP5 in the presence vs absence of inhibitor [1, 3]	WT fEPSP360 in the presence vs absence of inhibitor [1, 3]	fEPSP5 (PTP, 5 minutes after tetanization) as % of that in vehicle-treated Df(16)1/+ slices ([1]; 200-Hz tetanization) [%]	fEPSP360 (LTP, 6 hours post-tetanus) as % of that in vehicle-treated Df(16)1/+ slices ([1]; 200-Hz tetanization) [%]	PPF ([2]; Df(16)1/+ mice, 20-ms interval, CPA added to the bath solution)	PPF ([2]; Df(16)1/+ mice, 50-ms interval, CPA added to the bath solution)	PPF ([2]; WT mice, 20-ms interval, in the presence of CPA)	PPF ([2]; WT mice, 50-ms interval, in the presence of CPA)
C/C=C(/C)C(=O)O[C@H]1C(C)=C2[C@H]([C@@H]1OC(=O)CCCCCCC)[C@@](C)(OC(C)=O)C[C@H](OC(=O)CCC)[C@@]1(O)[C@H]2OC(=O)[C@@]1(C)O [thapsigargin]	rescued the enhancement of PTP and LTP	no significant difference	no significant difference	69	57				
CC(=O)C1=C(O)[C@@H]2[C@H]3c4c[nH]c5cccc(c45)C[C@H]3C(C)(C)N2C1=O [CPA, cyclopiazonic acid]				45	60	1.78±0.13	1.76±0.09	1.64±0.11	1.61±0.05
